One test has as its target T1, ColA3 (Streptomyces filamentosus, UniProt A0ABY4UPY4).
T1 construct: gene K7395_06055; full length C-A-PCP module, N-terminal 6xHis (or MBP-6xHis) tag
Kind of test: HPLC / MS of product […] (as IAA derivative […]) or […]. As to conditions: reconstituted with CaeA1, CaeA2, CaeB1; picolinic acid, malonyl-CoA, L-cysteine, ATP, Mg, pH 7.5, 30 C. The class given is biochemical.

Test [1] concerns the target N-terminally thioredoxin (Trx)-tagged Ct domain of the CaeA2 NRPS module (A. cyanogriseus (CAE-producing strain)). Nature of the test: ITC; MicroCal-ITC200, 25°C; 60 μM CaeA2 construct in the cell, 400 μM flavoprotein in the syringe; 50 mM Tris-HCl pH 7.5, 100 mM NaCl, 0.1 mM TCEP, 5% glycerol; single binding site model. (In general: In ITC the heat of successive injections is recorded.)

Test [2] addresses T2, CaeB1 (Actinoalloteichus caeruleus, UniProt M1F383, E372L).
T2 construct: full length, N-terminal 6xHis (or MBP-6xHis) tag, expressed in E. coli; noncovalent FAD
Nature of the test: absorbance spectrum of purified protein. The test is classed as binding. To be noted: noncovalent; co-purified, oxidized form.

Test [3] has as its target T3, CaeB1 (Actinoalloteichus caeruleus, UniProt M1F383, S168A).
T3 construct: full length, N-terminal 6xHis (or MBP-6xHis) tag, expressed in E. coli; noncovalent FAD
Kind of test: absorbance spectrum; activity rescue by added FAD. The class given is biochemical. As to conditions: noncovalent; excess FAD added in the product assay.

Test [4] concerns the target T4, CaeB1 (Actinoalloteichus caeruleus, UniProt M1F383).
T4 construct: full length, N-terminal 6xHis (or MBP-6xHis) tag, expressed in E. coli; noncovalent FAD
T4 sequence (M1F383 1-386): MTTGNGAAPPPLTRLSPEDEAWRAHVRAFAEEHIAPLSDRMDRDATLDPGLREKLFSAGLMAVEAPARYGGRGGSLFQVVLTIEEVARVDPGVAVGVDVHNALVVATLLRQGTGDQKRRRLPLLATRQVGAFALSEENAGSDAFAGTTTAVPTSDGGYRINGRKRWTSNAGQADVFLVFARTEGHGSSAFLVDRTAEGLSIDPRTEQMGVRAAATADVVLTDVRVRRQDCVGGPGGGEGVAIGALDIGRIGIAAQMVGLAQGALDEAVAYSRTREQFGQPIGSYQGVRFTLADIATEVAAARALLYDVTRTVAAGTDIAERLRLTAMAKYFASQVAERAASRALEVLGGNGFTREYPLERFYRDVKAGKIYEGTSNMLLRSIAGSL
Nature of the test: absorbance spectrum; heat denaturation and HPLC-HR-MS. The class given is binding. As to conditions: noncovalent; co-purified, oxidized form.

A further test concerns the target T5, ColB1 (Streptomyces filamentosus, UniProt A0ABY4UQ20).
T5 construct: gene K7395_06050; full length, N-terminal 6xHis (or MBP-6xHis) tag; noncovalent FAD
T5 sequence (A0ABY4UQ20 1-394): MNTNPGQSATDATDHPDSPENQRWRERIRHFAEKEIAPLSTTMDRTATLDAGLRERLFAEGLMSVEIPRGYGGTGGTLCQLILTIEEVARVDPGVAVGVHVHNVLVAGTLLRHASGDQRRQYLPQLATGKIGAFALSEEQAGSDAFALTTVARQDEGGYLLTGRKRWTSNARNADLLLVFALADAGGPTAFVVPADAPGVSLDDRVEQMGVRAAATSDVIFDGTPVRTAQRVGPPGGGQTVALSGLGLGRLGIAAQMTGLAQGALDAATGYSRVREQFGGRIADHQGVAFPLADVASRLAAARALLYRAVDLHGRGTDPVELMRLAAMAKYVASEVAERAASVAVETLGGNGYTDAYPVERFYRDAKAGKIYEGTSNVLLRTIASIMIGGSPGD
Nature of the test: heat denaturation and HPLC-DAD / ESI-HR-MS. The class given is binding. To be noted: noncovalent; co-purified.

The target in test [5] is Ct-PCP didomain of the CaeA2 NRPS module (A. cyanogriseus (CAE-producing strain)). Kind of test: ITC; MicroCal-ITC200, 25°C; 60 μM CaeA2 construct in the cell, 400 μM flavoprotein in the syringe; 50 mM Tris-HCl pH 7.5, 100 mM NaCl, 0.1 mM TCEP, 5% glycerol; single binding site model.
In the next test the target is T6, MBP-fused CaeB1 variant (A. cyanogriseus (CAE-producing strain), UniProt M1F383 1-386).
T6 construct: CaeB1, flavin (FAD)-dependent protein of the caerulomycin (cae) biosynthetic gene cluster; also called trans-acting flavoprotein; not shown: MBP, N-terminal, kept
T6 sequence (looked up): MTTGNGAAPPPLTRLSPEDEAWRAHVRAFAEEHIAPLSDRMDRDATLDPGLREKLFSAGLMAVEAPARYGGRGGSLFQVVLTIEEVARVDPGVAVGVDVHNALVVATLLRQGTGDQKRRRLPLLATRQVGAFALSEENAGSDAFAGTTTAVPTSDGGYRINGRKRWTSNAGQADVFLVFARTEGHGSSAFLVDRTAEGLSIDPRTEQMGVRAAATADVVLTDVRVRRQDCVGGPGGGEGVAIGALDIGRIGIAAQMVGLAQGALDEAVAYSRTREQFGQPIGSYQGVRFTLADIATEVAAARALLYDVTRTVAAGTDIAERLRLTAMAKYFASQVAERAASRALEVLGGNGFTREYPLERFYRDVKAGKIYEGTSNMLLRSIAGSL
The test is described as above. As to conditions: both partners purified.

T1 sequence (A0ABY4UPY4 entry or part of it): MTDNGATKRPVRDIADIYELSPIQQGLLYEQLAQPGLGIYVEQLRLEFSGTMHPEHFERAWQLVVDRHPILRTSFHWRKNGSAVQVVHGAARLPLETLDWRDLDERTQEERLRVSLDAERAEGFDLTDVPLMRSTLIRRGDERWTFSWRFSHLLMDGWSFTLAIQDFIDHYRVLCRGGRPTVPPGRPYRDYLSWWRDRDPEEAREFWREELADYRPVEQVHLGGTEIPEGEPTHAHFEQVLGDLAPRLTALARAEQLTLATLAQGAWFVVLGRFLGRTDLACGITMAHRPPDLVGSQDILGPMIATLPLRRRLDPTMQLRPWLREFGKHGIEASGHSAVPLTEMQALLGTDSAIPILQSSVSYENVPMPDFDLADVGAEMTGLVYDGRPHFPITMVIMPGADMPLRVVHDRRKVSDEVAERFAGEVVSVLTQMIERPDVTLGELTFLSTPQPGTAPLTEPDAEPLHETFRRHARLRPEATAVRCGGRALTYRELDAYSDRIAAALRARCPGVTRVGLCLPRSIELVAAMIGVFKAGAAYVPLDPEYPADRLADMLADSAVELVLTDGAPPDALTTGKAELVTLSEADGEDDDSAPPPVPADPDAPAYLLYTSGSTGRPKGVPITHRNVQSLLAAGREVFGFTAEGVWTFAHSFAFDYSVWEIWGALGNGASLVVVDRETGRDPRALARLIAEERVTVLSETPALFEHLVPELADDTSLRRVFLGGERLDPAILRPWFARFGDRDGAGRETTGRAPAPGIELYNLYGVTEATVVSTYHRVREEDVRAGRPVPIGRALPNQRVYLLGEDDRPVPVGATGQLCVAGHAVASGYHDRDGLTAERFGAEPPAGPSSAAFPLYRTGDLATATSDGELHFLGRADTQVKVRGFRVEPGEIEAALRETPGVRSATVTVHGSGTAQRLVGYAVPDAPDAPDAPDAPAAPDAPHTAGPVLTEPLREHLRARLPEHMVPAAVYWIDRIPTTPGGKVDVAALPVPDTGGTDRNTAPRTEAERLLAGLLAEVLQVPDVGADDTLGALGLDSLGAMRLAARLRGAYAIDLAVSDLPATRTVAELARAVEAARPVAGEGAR
T2 sequence (M1F383 entry or part of it E372L): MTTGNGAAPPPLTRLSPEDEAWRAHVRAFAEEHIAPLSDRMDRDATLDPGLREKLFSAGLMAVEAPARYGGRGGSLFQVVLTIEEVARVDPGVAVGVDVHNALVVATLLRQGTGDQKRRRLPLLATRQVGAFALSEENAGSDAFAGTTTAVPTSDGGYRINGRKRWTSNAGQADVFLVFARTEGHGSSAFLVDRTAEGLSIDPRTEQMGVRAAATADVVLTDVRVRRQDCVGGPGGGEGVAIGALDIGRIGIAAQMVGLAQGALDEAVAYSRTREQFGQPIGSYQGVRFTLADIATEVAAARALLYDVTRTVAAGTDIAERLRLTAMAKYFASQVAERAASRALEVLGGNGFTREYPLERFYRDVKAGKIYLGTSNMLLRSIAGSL
T3 sequence (M1F383 entry or part of it S168A): as the sequence (M1F383 entry or part of it E372L) above, with S168A, L372E counted along it

With `CC(C)C[C@H](N)C(=O)O` [L-leucine], the “HPLC / MS of product 15 (as IAA derivative 17) or 16” value on ColA3 was “incubating CaeA1, CaeA2, and CaeB1 with ColA3 in the presence of the necessary substrates”.
In test [1], ColB1 (enzyme) displayed a Kd of 1180 nM. This lies in the single-digit micromolar range.
Regarding `Cc1cc2nc3c(=O)[nH]c(=O)nc-3n(C[C@H](O)[C@H](O)[C@H](O)COP(=O)(O)OP(=O)(O)OC[C@H]3O[C@@H](n4cnc5c(N)ncnc54)[C@H](O)[C@@H]3O)c2cc1C` [FAD], at CaeB1 [2], the “absorbance spectrum of purified protein” value is “shares with the wild-type protein a light yellow color and an absorbance spectrum characteristic of FAD”. Moreover, at CaeB1 [3], the FAD-binding ability entry is recorded as “the latter variant was nearly colorless, indicating the loss of FAD-binding ability”. Besides, at CaeB1 [4], the “absorbance spectrum; heat denaturation and HPLC-HR-MS” value is “Purified CaeB1, which appeared light yellow, was determined to bind oxidized flavin adenine dinucleotide (FAD)”. The “heat denaturation and HPLC-DAD / ESI-HR-MS” value at ColB1 was “ColB1, the homolog of trans-acting flavoprotein CaeB1 that also noncovalently binds a FAD cofactor”.

B1: MBP-fused CaeB1 variant (enzyme)
chain: MTTGNGAAPPPLTRLSPEDEAWRAHVRAFAEEHIAPLSDRMDRDATLDPGLREKLFSAGLMAVEAPARYGGRGGSLFQVVLTIEEVARVDPGVAVGVDVHNALVVATLLRQGTGDQKRRRLPLLATRQVGAFALSEENAGSDAFAGTTTAVPTSDGGYRINGRKRWTSNAGQADVFLVFARTEGHGSSAFLVDRTAEGLSIDPRTEQMGVRAAATADVVLTDVRVRRQDCVGGPGGGEGVAIGALDIGRIGIAAQMVGLAQGALDEAVAYSRTREQFGQPIGSYQGVRFTLADIATEVAAARALLYDVTRTVAAGTDIAERLRLTAMAKYFASQVAERAASRALEVLGGNGFTREYPLERFYRDVKAGKIYEGTSNMLLRSIAGSL
With B1, in test [5], the Kd was 420 nM.

B2: N-terminally thioredoxin (Trx)-tagged Ct domain of the CaeA2 NRPS module (domain or fragment)
chain: EQEADGTVAPFTPHQAALVAEGAVDWITVEAAASDLDPALAERALREIADRHPALRLRSGTRDDGTPGQYDGGSPGDGLFSEIDLSGLAEDARDDALAEIVAEMSEEVGLAEREPVKLAVVRAGADDVRLLWLAAGAALDDTSWRLLLAEFGRAYQQLAERGSIDWTGMPESVLGWVATQEGAAPPPSVETVAFTGELRTVLDADVTTAFAEATFGAYHLELGEAVAAALTVAARAWPGREPAVTVERSLRTATTDEALGRFTEVTTLDVAAEAVADTLTGVKRAYRDVVRPAPAHPRVHLRDVRSGDWRPTAGPLSPAGLSSPVSTATTPEVLAEVGAAVVGGELVLRWRHTTDAAEATALAEAFTEAVETITEHCRQAGSGSYEPSDFPLAGVDPDELSALLSTLEK
modifications: Trx/6xHis tag omitted; Ct primers not in the excerpt; start placed just after the Carrier feature (2001-2075), in line with the 58 kDa Trx fusion and the 44 kDa difference between CaeA2 and …
The molecule B2 had a Kd with MBP-fused CaeB1 variant of 530 ± 120 nM.

What is called Kd is the constant that tells how readily two partners part at equilibrium.

The values above are taken from publication PMC8149447, “Caerulomycin and collismycin antibiotics share a trans-acting flavoprotein-dependent assembly line for 2,2’-bipyridine formation” (Nature Communications, 2021).
